Assay results as given in patent US6630125B2, “18F-labeled choline analogs” (priority 2000, dated 2003).
“Also recorded” adds a separate entry of the source. Read-outs that look alike come from different tables or passages of the source.

Key:
[1] = system: mice with PC-3 xenografts
Experimental: Body weight and tumor volume were measured weekly and tumor volume (mm3) was calculated using the formula S2×L/2, where S and L represent the small and large diameters of the tumor, respectively.
A prescribed duration of time was allowed before procurement of heart, liver, lung, blood, kidney, bone (femur), brain (whole), prostate gland, tumor, bladder, and skeletal muscle. The tissues were weighed, and counted for ^18F in a gamma counter, then dissolved in Solvable (Dupont, Boston Mass.) and counted for ^14C in a liquid scintillation counter. For the bladder, the percentage of the injected dose in the urine was determined. For all other tissues, radiotracer uptake was calculated as: […]

[2] = Human dosimetry estimation (MIRDOSE 3.1 from mouse biodistribution)
Text: Urinary radioactivity was assumed to be retained within the urinary bladder. […] Since urinary excretion patterns in rodents are commonly more rapid than in the human, the assumption of no urinary clearance of radioactivity was precautionary. Bone uptake was distributed at the bone surfaces. The 70 kg adult male ORNL phantom was used since this would best reflect the primary study population (prostate carcinoma).

[3] = Stability of the FCH preparation (HPLC); format: physicochemical; conditions: room temperature for 7 hr, cation-exchange HPLC
Experimental: The stability of FCH in its prepared form was evaluated by monitoring the radiochemical purity using the HPLC system described above. […] After an incubation of 2 hr at 37 C, the plasma was separated, the plasma proteins precipitated by adding two volumes of methanol, and the supernatant was analyzed for intact FCH by cation-exchange HPLC. […] FCH was also found to be stable in a blood samples taken from healthy human subjects (n=5).

[4] = system: patients with prostate cancer; experiment: PET imaging in patients with prostate cancer; conditions: human, in vivo
Experimental: The distribution of FCH in PET imaging studies was evaluated in 14 patients with prostate cancer, 14 patients with breast cancer, and 5 patients with brain tumors. Imaging was performed using the Advance PET scanner (GE Medical Systems, Milwaukee, Wis.). […] In prostate cancer patients, a transmission scan of the pelvic region was obtained before administration of radiotracer. FCH (2.5-5 mCi) was administered intravenously, and dynamic imaging of the pelvis region was commenced for 20-30 min. During image reconstruction, the emission data in the pelvic region were corrected for photon attenuation using the transmission scan. Immediately following the dynamic scan, a whole-body emission scan was performed without transmission scanning for attenuation correction. The images were reconstructed using an Ordered Subset Expectation Maximum (OS-EM) algorithm. Regions-of-interest were drawn manually on the attenuation corrected images for evaluation of FCH kinetics in tissues. Standardized uptake values of FCH uptake in tissues were calculated using the attenuation-corrected images according to the equation: [formula]
Patient 2: Transmission and FCH emission scans of a person with hormone naive clinical stage T2 prostate cancer were commenced over the lower pelvis.
The same patient was scanned with FDG within the same week (FIG. 8).
Patient 4: A person with a history of clinical stage T3b prostate cancer treated by radical retropubic prostatectomy was diagnosed with metastatic disease by bone scan. FCH-PET imaging was performed before and after initiating androgen deprivation therapy. In the first study, whole-body emission scanning was started 5 min after injection, beginning at the pelvic region in order to image the pelvis and prostatic bed before arrival of urinary radioactivity. […] The patient was rescanned 2 weeks after initiating androgen deprivation therapy.
Patient 5: A person was initially diagnosed five years prior with locally advanced clinical stage T3NOMO prostate cancer and underwent radical prostatectomy followed by external beam radiation to the prostate bed. […] The patient was then treated with Zolex and Casodex.

[5] = system: patients with breast cancer; experiment: PET imaging in patients with breast cancer; format: in vivo, human; conditions: person, metastatic breast cancer
Experimental: In breast cancer patients, whole-body PET scans were obtained, beginning at 10 min post-administration of FCH. In patients with brain tumors, PET scans of the brain were obtained, beginning at 5 min post-administration of FCH.
Thirteen patients with metastatic breast cancer and one patient with both primary and metastatic breast cancer were each imaged with both FCH-PET and FDG-PET within a period of less than one month.
A person had undergone re-excision of right breast intraductal carcinoma 4 yr prior, then right modified radical mastectomy 3 yr prior followed by tamoxifen chemotherapy. Six months prior to the PET scans, metastatic breast cancer was detected by palpation (right breast sternal mass) and CT (mediastinal and hilar adenopathies, mass in right anterior pelvis). Tamoxifen therapy was stopped. […] Uptake of FCH was also observed in the corresponding tumors: sternal mass (SUV=14.6), mediastinal and hilar adenopathies (SUVs˜8.5), pelvic mass (SUV=6.5). […] Smaller metastases were indicated on the FCH-PET scan in the right chest wall and left lung that were not seen on the FDG-PET scan. Concerning the anterior pelvic tumor, there was observed a homogenous distribution of FDG across the tumor in the FDG-PET scan, whereas the FCH was preferentially distributed on the periphery of the tumor.

[6] = calculated from mice biodistribution data

C[N+](C)(CF)CCO.[Cl-] [FCH, dimethylfluoromethyl-2-hydroxyethylammonium chloride]
Uptake in Blood ([1]; 10 min): 2.7 ± 0.9 % dose kg/100 g
Uptake in Brain ([1]; 10 min): 0.8 ± 0.3 % dose kg/100 g
Uptake in Heart ([1]; 10 min): 15.5 ± 5.9 % dose kg/100 g
Uptake in Kidney ([1]; 10 min): 127.7 ± 27.6 % dose kg/100 g
Uptake in Liver ([1]; 10 min): 50.7 ± 15.3 % dose kg/100 g
Uptake in Lung ([1]; 10 min): 18.0 ± 5.3 % dose kg/100 g
Uptake in Prostate ([1]; 10 min): 6.6 ± 2.2 % dose kg/100 g
Uptake in Skeletal Muscle ([1]; 10 min): 4.4 ± 1.8 % dose kg/100 g
Uptake in Tumor ([1]; 10 min): 3.6 ± 0.6 % dose kg/100 g
Uptake in Blood ([1]; 30 min): 3.3 ± 0.2 % dose kg/100 g
Uptake in Brain ([1]; 30 min): 1.0 ± 0.2 % dose kg/100 g
Uptake in Heart ([1]; 30 min): 13.2 ± 2.6 % dose kg/100 g
Uptake in Kidney ([1]; 30 min): 116 ± 17 % dose kg/100 g
Uptake in Liver ([1]; 30 min): 56.7 ± 13.2 % dose kg/100 g
Uptake in Lung ([1]; 30 min): 17.1 ± 1.4 % dose kg/100 g
Uptake in Prostate ([1]; 30 min): 7.1 ± 2.1 % dose kg/100 g
Uptake in Skeletal Muscle ([1]; 30 min): 1.1 ± 1.0 % dose kg/100 g
Uptake in Tumor ([1]; 30 min): 7.1 ± 2.1 % dose kg/100 g
Uptake in Blood ([1]; 60 min): 1.5 ± 0.6 % dose kg/100 g
Uptake in Brain ([1]; 60 min): 0.8 ± 0.1 % dose kg/100 g
Uptake in Heart ([1]; 60 min): 12.7 ± 3.2 % dose kg/100 g
Uptake in Kidney ([1]; 60 min): 94.3 ± 31.0 % dose kg/100 g
Uptake in Liver ([1]; 60 min): 58.4 ± 40.6 % dose kg/100 g
Uptake in Lung ([1]; 60 min): 21 ± 4.4 % dose kg/100 g
Uptake in Prostate ([1]; 60 min): 7.1 ± 3.0 % dose kg/100 g
Uptake in Skeletal Muscle ([1]; 60 min): 4.1 ± 0.6 % dose kg/100 g
Uptake in Tumor ([1]; 60 min): 7.9 ± 5.0 % dose kg/100 g
tumor uptake ([1]; PC-3 xenograft): ~0.07 % dose kg/g
injected dose in the urinary bladder ([1]; at 30 min): 10%
tumor:blood ratio ([1]; at 60 min): 5.3±2.4
liver uptake compared with CH ([1]; mouse, in vivo): lower
uptake by normal brain compared with other tracers ([1]; mouse, in vivo): one tenth that for FDG; also recorded: one half that of CH
effective dose equivalent (EDE) ([2]; 10 mCi administration): 1.1 rem
largest organ dose (kidney) ([2]; 10 mCi administration): 8.1 rads/rems
Human radiation dose estimate, Heart ([2]; calculated from mice FCH biodistribution data, 70 kg adult male phantom): 0.046 rads/mCi
Human radiation dose estimate, Bladder wall [2, 6]: 0.049 rads/mCi
Human radiation dose estimate, Bone [2, 6]: 0.038 rads/mCi
Human radiation dose estimate, Brain [2, 6]: 0.0071 rads/mCi
Human radiation dose estimate, Kidney [2, 6]: 0.81 rads/mCi
Human radiation dose estimate, Liver [2, 6]: 0.30 rads/mCi
Human radiation dose estimate, Lung [2, 6]: 0.043 rads/mCi
Human radiation dose estimate, Muscle [2, 6]: 0.032 rads/mCi
Human radiation dose estimate, Ovaries [2, 6]: 0.039 rads/mCi
Human radiation dose estimate, Red marrow [2, 6]: 0.043 rads/mCi
Human radiation dose estimate, Testes [2, 6]: 0.028 rads/mCi
radiochemical purity after storage of the preparation [3]: > 99%
decrease of SUV in ischial metastasis [4]: 68%
decrease of SUV in primary tumor [4]: 61%
decrease of SUVs in the tumors [4]: 35-40%
SUV in ischial metastasis ([4]; male): 2.4
SUV in primary tumor ([4]; male): 3.0
SUV index in osseous lesions ([4]; male): 8.0
SUV values in osseous lesions of the pelvis region ([4]; male): 3.8-8.0
injected dose of radioactivity in urine ([4]; male): 1.3%
radioactivity concentration in the brain relative to prostate gland or metastasis ([4]; male): < 2%
time of arrival of radioactivity in the urinary bladder / urine ([4]; male): about 8 min
time to plateau of radioactivity concentration in prostate and metastasis ([4]; male): ≤ 5 min
time to plateau of radioactivity concentration in the prostate bed ([4]; male): ≤ 3 min
tracer uptake in osseous lesions, FCH relative to FDG ([4]; male): 2 fold
arterial concentration relative to the peak level ([4]; male, 2 min): < 5%
SUV of osseous metastasis (left ischium) ([4]; male, 5 min): 7.7
SUV of primary tumor ([4]; male, 5 min): 7.7
SUV of pelvic tumor / pelvic mass [5]: 6.5
SUV of sternal mass [5]: 14.6
SUVs of mediastinal and hilar adenopathies [5]: ~8.5
